From patent publication US20250304559A1, “Ether-Linked Antiviral Compounds” (Pfizer Inc., priority 2021, published 2025)
Structures can show the parent of a compound that is named as a salt. Where two headings read alike, the source gives them in different places.

Columns and labels:
[1] = system: SARS-CoV-2 (USA_WA1/2020); experiment: Antiviral Activity from SARS-CoV-2 Infection (cytopathic effect, Cell Titer-Glo); type: cell-based; conditions: Severe acute respiratory syndrome coronavirus 2, Vero C1008, 72 h, VeroE6 cells enriched for hACE2, MOI 0.002, 3-day incubation; tested alone or with P-gp inhibitor CP-100356 2 μM (table does not say which); read-out: Geometric Mean EC50
SARS-CoV-2 3CL protease = target: T1, SARS-CoV-2 3CL protease (Severe acute respiratory syndrome coronavirus 2, UniProt P0DTD1); experiment: SARS-CoV-2 Coronavirus 3C Protease FRET Assay; type: biochemical; conditions: Morrison equation fit, 15 nM enzyme, 25 μM peptide substrate
T1 construct: measures the activity of full-length SARS-CoV-2 3CL protease

[2] = Examples 14-78 and 114 (second head of Table 2), read-out: Geometric Mean Ki (nM) IC50
[3] = Examples 1-13, 60 minutes at 23° C., read-out: Geometric Mean Ki

Compound | EC50 [1] [µM] | Ki (SARS-CoV-2 3CL protease; [2]) [nM] | Ki (SARS-CoV-2 3CL protease; [3]) [nM]
CCn1nc(C)cc1OCC(=O)[C@H](C[C@@H]1CCNC1=O)NC(=O)[C@@H]1[C@@H]2[C@H](CN1C(=O)[C@@H](NC(=O)C(F)(F)F)C(C)(C)C)C2(C)C [Example 27, (1R,2S,5S)-N-{(2S)-4-[(1-ethyl-3-methyl-1H-pyrazol-5-yl)oxy]-3-oxo-1-[(3S)-2-oxopyrrolidin-3-yl]butan-2-yl}-6,6-dimethyl-3-[3-methyl-N-(trifluoroacetyl)-L-valyl]-3-azabicyclo[3.1.0]hexane-2-carboxamide] | 0.422 | 8.84 | 
CC(C)[C@H](NC(=O)C(F)(F)F)C(=O)N1C[C@H]2[C@@H]([C@H]1C(=O)N[C@@H](C[C@@H]1CC(O)NC1=O)C(=O)COc1ccc(F)cc1F)C2(C)C (stereo partly drawn) [Example 39, (1R,2S,5S)-N-{(2S)-4-(2,4-difluorophenoxy)-1-[(3R)-5-hydroxy-2-oxopyrrolidin-3-yl]-3-oxobutan-2-yl}-6,6-dimethyl-3-[N-(trifluoroacetyl)-L-valyl]-3-azabicyclo[3.1.0]hexane-2-carboxamide] | 0.306 | 3.7 | 
CC(C)(C)[C@H](NS(=O)(=O)C(F)(F)F)C(=O)N1C[C@H]2[C@@H]([C@H]1C(=O)N[C@@H](C[C@@H]1CCNC1=O)C(=O)COc1ccc(F)cc1F)C2(C)C [Example 3, (1R,2S,5S)-N-{(2S)-4-(2,4-difluorophenoxy)-3-oxo-1-[(3S)-2-oxopyrrolidin-3-yl]butan-2-yl}-6,6-dimethyl-3-{3-methyl-N-[(trifluoromethyl)sulfonyl]-L-valyl}-3-azabicyclo[3.1.0]hexane-2-carboxamide] | 0.207 |  | 3.5
CC(C)(C)[C@H](NS(=O)(=O)C(F)(F)F)C(=O)N1C[C@H]2[C@@H]([C@H]1C(=O)N[C@@H](C[C@@H]1CC(=O)NC1=O)C(=O)COc1ccc(F)cc1F)C2(C)C [Example 44, (1R,2S,5S)-N-{(2S)-4-(2,4-difluorophenoxy)-1-[(3R)-2,5-dioxopyrrolidin-3-yl]-3-oxobutan-2-yl}-6,6-dimethyl-3-[3-methyl-N-(trifluoromethanesulfonyl)-L-valyl]-3-azabicyclo[3.1.0]hexane-2-carboxamide] | 0.408 | 8.95 | 
CCC(C(NC(=O)C(F)(F)F)C(=O)N1C[C@H]2[C@@H]([C@H]1C(=O)N[C@@H](C[C@@H]1CCNC1=O)C(=O)COc1ccc(F)cc1F)C2(C)C)C(F)(F)F (stereo in doubt) [Example 32, (1R,2S,5S)-N-{(2S)-4-(2,4-difluorophenoxy)-3-oxo-1-[(3S)-2-oxopyrrolidin-3-yl]butan-2-yl}-6,6-dimethyl-3-[3′,3′,3′-trifluoro-N-(trifluoroacetyl)-L-isoleucyl]-3-azabicyclo[3.1.0]hexane-2-carboxamide] | 0.0989 | 2.42 | 
CC(C)C[C@@H](C(=O)N1C[C@H]2[C@@H]([C@H]1C(=O)N[C@@H](C[C@@H]1CCNC1=O)C(=O)COc1cc(C(F)(F)F)nn1C)C2(C)C)N(C)C(C)C (single isomer, unassigned) [Example 65, (1R,2S,5S)-6,6-dimethyl-3-[N-methyl-N-(propan-2-yl)-L-leucyl]-N-{(2R*)-4-{[1-methyl-3-(trifluoromethyl)-1H-pyrazol-5-yl]oxy}-3-oxo-1-[(3S)-2-oxopyrrolidin-3-yl]butan-2-yl}-3-azabicyclo[3.1.0]hexane-2-carboxamide, DIAST-1] | 0.133 | 96.7 | 
COC(=O)N[C@H](C(=O)N1C[C@H]2[C@@H]([C@H]1C(=O)N[C@@H](C[C@@H]1CCNC1=O)C(=O)COc1ccccc1)C2(C)C)C(C)(C)C [Example 30, methyl{(2S)-1-[(1R,2S,5S)-6,6-dimethyl-2-({(2S)-3-oxo-1-[(3S)-2-oxopyrrolidin-3-yl]-4-phenoxybutan-2-yl}carbamoyl)-3-azabicyclo[3.1.0]hexan-3-yl]-3,3-dimethyl-1-oxobutan-2-yl}carbamate] | 0.0272 | 2.15 | 
CC(C)[C@H](NS(=O)(=O)C(F)(F)F)C(=O)N1C[C@H]2[C@@H]([C@H]1C(=O)N[C@@H](C[C@@H]1CCNC1=O)C(=O)COc1cccc(Cl)c1)C2(C)C [Example 40, (1R,2S,5S)-N-{(2S)-4-(3-chlorophenoxy)-3-oxo-1-[(3S)-2-oxopyrrolidin-3-yl]butan-2-yl}-6,6-dimethyl-3-[N-(trifluoromethanesulfonyl)-L-valyl]-3-azabicyclo[3.1.0]hexane-2-carboxamide] | 0.112 | 4.22 | 
CC(C)(C)[C@H](NS(=O)(=O)C(F)(F)F)C(=O)N1C[C@H]2[C@@H]([C@H]1C(=O)N[C@@H](C[C@@H]1CCNC1=O)C(=O)COc1cccc(Cl)c1)C2(C)C [Example 28, (1R,2S,5S)-N-{(2S)-4-(3-chlorophenoxy)-3-oxo-1-[(3S)-2-oxopyrrolidin-3-yl]butan-2-yl}-6,6-dimethyl-3-[3-methyl-N-(trifluoromethanesulfonyl)-L-valyl]-3-azabicyclo[3.1.0]hexane-2-carboxamide] | 0.0168 | 2.15 | 
CCC([C@H](NS(=O)(=O)C(F)(F)F)C(=O)N1C[C@H]2[C@@H]([C@H]1C(=O)N[C@@H](C[C@@H]1CCNC1=O)C(=O)COc1ccc(F)cc1F)C2(C)C)C(F)(F)F (stereo in doubt) [Example 63, (1R,2S,5S)-N-{(2S)-4-(2,4-difluorophenoxy)-3-oxo-1-[(3S)-2-oxopyrrolidin-3-yl]butan-2-yl}-6,6-dimethyl-3-[3′,3′,3′-trifluoro-N-(trifluoromethanesulfonyl)-L-isoleucyl]-3-azabicyclo[3.1.0]hexane-2-carboxamide] | 5.55 | 54.2 | 
Cn1nc(C(F)(F)F)cc1OCC(=O)[C@H](C[C@@H]1CCNC1=O)NC(=O)[C@@H]1[C@@H]2[C@H](CN1C(=O)[C@@H](NC(=O)C(F)(F)F)C(C)(C)C)C2(C)C [Example 8, (1R,2S,5S)-6,6-dimethyl-3-[3-methyl-N-(trifluoroacetyl)-L-valyl]-N-{(2S)-4-{[1-methyl-3-(trifluoromethyl)-1H-pyrazol-5-yl]oxy}-3-oxo-1-[(3S)-2-oxopyrrolidin-3-yl]butan-2-yl}-3-azabicyclo[3.1.0]hexane-2-carboxamide] | 0.0491 |  | 2.87
CC(C)[C@H](NC(=O)C(F)(F)F)C(=O)N1C[C@H]2[C@@H]([C@H]1C(=O)N[C@@H](C[C@@H]1CCNC1=O)C(=O)COc1cc(C(F)(F)F)nn1C)C2(C)C [Example 9, (1R,2S,5S)-6,6-dimethyl-N-{(2S)-4-{[1-methyl-3-(trifluoromethyl)-1H-pyrazol-5-yl]oxy}-3-oxo-1-[(3S)-2-oxopyrrolidin-3-yl]butan-2-yl}-3-[N-(trifluoroacetyl)-L-valyl]-3-azabicyclo[3.1.0]hexane-2-carboxamide, trifluoroacetate salt] | 0.265 |  | 42.8
CC(C)[C@H](NS(=O)(=O)C(F)(F)F)C(=O)N1C[C@H]2[C@@H]([C@H]1C(=O)N[C@@H](C[C@@H]1CCNC1=O)C(=O)COc1cccc(C(F)(F)F)c1)C2(C)C [Example 5, (1R,2S,5S)-6,6-dimethyl-N-{(2S)-3-oxo-1-[(3S)-2-oxopyrrolidin-3-yl]-4-[3-(trifluoromethyl)phenoxy]butan-2-yl}-3-{N-[(trifluoromethyl)sulfonyl]-L-valyl}-3-azabicyclo[3.1.0]hexane-2-carboxamide] | 0.205 |  | 10.6
